# Earlier results as cited in patent US12310957B2, “Bowel cleansing composition” (priority 2013, dated 2025).
# Test system: patients undergoing colonoscopy
# Conditions: Nunes et al. 2008, scale proposed by the authors
structure (smiles),measurement,value
OC[C@@H](O)[C@@H](O)[C@H](O)[C@H](O)CO [mannitol],rate of adequate bowel cleansing,75%
